{"source": "patent US9801371B2", "about": "“Self-assembling polymer particle release system” (priority 2010, dated 2017)", "key": {"[1]": {"settings": "cited from earlier work"}, "[2]": {"settings": "cited from earlier work", "remark": "listed apart in the source"}, "[3]": {"settings": "cited from earlier work", "remark": "listed apart in the source"}, "kohlrabi leaves": {"test_system": "kohlrabi leaves", "settings": "fine crystalline wax surface; cited from earlier work"}, "sugar beet leaves": {"test_system": "sugar beet leaves", "settings": "amorphous wax surface; cited from earlier work"}, "[4]": {"experiment": "Soil column test: topsoil column washed with ten 10-ml aliquots of water", "format": "physicochemical", "protocol": "The soil column was prepared by cutting off the tip of a 15 ml VWR brand CAT, No. 20171-036 polypropylene centrifuge tube leaving approximately a ⅛-inch opening, which was filled with cotton to prevent the soil from pouring out the bottom. The cotton block was 0.5-inch thick, which held unpacked 3 inches of Nature's topsoil from the Michigan Peat Co., (Oakland Nursery). The topsoil was sieved ten times through a #7 metal screen sieve to remove large debris before filling the tubes.\nA 50-μl sample of the mixture was applied to the filter paper and dried while a 200-μl sample was applied to the top of the soil columns and dried before washing with ten 10-ml aliquots of water."}, "[5]": {"experiment": "Filter paper test: ten 10-ml water washings, UV analysis of AI washed through", "format": "physicochemical", "excerpt": "All of the polymers in this set of experiments were combined with the AI at a 70% AI by weight to 30% polymer by weight concentrations. […] The filter paper samples were applied to a slightly wet Buchner funnel to set the paper evenly and then ten 10-ml aliquots of de-ionized (DI) water were suctioned through the filter paper. Ultraviolet light (UV) analysis for each of the 10-ml fractions was used to determine the absorption of the AI (264 nm) washed through the filter paper and recorded as absorption versus each individual 10-ml wash.\nThe control for these systems was evaluated by placing methylene chloride solutions of the AI alone or the polymer alone onto the filter paper, drying overnight, and washing with ten 10-ml aliquots of DI water.\nThe AI was dry ground (mortar and pestle) with urea-formaldehyde flower foam as the cage material [commercial product (Foliage Fresh)] where the ratio of AI to flower foam was 70%/30% by weight. This mixture then was tumbled-coated with an organic solvent solution of a hydrophobic polymer (paraffin wax/hexane; polystyrene/toluene; silicone oil/toluene) in a round bottom flask. […] Small amounts (0.07 g) of the powder were placed on the filter paper and subsequently washed with ten 10-ml aliquots of DI water and analyzed in a similar manner as previously described.\nLiquid samples of the AI-polymer combinations and AI control samples were applied to filter paper (Whatman #2) and dried for 24 hours at room temperature. The filter paper containing the AI-polymer combination or the AI control samples were placed in a Buchner funnel under water aspiration vacuum conditions, while ten 10-ml aliquots of water were applied to the top of the filter paper containing the AI-polymer or AI control material, which was then sucked through the filter paper and collected in the receiving flask that holds the funnel-vacuum attachment.\nAfter each 10-ml aliquot of water was suctioned through the filter paper containing the sample, the suctioned solution then was removed and analyzed with a UV spectrometer for any AI that went through the water washing process. The ten 10-ml sequential washings were a simulation of how an AI applied to soil would remain on the soil and migrate through the soil under a rain environmental exposure condition.\nDry 100% solid samples were placed on the filter paper directly and subsequently washed with ten 10-ml aliquots in a similar manner as the liquid samples that were dried after placement on the filter paper.\nVarious concentrations of the AI's were dissolved in water or water and a co-solvent and analyzed at 254 nm or other UV/visible regions of the spectrum in order to establish a standard calibration curve of absorbance versus AI concentration."}, "[6]": {"settings": "Table 26, USDA Pesticide Properties Database"}}, "note": "Where two headings read alike, the source gives them in different places."}
{"smiles": "CCCCN(C)C(=O)Nc1ccc(Cl)c(Cl)c1", "note": "[Neburon]", "values": [{"measurement": "Log P", "setting": "[1]", "result": 3.8}, {"measurement": "KOC", "setting": "[2]; Tables 21-25", "result": 2500}]}
{"smiles": "COc1c(Cl)ccc(Cl)c1C(=O)O", "note": "[Dicamba]", "values": [{"measurement": "Water Solubility", "setting": "[3]", "result": 250000, "unit": "µg/mL"}, {"measurement": "Log P", "setting": "[1]", "result": "−1.88"}, {"measurement": "KOC", "setting": "[2]; [6]", "result": 2, "unit": "mg/g"}, {"measurement": "KOC", "setting": "[2]; Tables 21-25", "result": 12}]}
{"smiles": "O=C(O)CNCP(=O)(O)O", "note": "[Glyphosate]", "values": [{"measurement": "capability to penetrate leaf surfaces", "setting": "kohlrabi leaves", "result": "very little capability to penetrate leaf surfaces"}, {"measurement": "capability to penetrate leaf surfaces", "setting": "sugar beet leaves", "result": "very little capability to penetrate leaf surfaces"}]}
{"smiles": "c1ccc2[nH]c(-c3cscn3)nc2c1", "note": "[Thiabendazole]", "values": [{"measurement": "Water Solubility", "setting": "[3]", "result": 30, "unit": "µg/mL"}, {"measurement": "Log P", "setting": "[1]", "result": 2.39}, {"measurement": "KOC", "setting": "[2]; Tables 21-25", "result": 2500}]}
{"smiles": "CC(C)N.O=C(O)COc1ccc(Cl)cc1Cl", "note": "[2,4-D Amine Salt]", "values": [{"measurement": "% released", "setting": "[4]; 10-ml water washing 1", "result": 32, "unit": "%"}, {"measurement": "% released", "setting": "[4]; 10-ml water washing 2", "result": 26, "unit": "%"}, {"measurement": "% released", "setting": "[4]; 10-ml water washing 3", "result": 20, "unit": "%"}, {"measurement": "% released", "setting": "[4]; 10-ml water washing 4", "result": 13, "unit": "%"}, {"measurement": "% released", "setting": "[4]; 10-ml water washing 5", "result": 9, "unit": "%"}, {"measurement": "% released", "setting": "[4]; 10-ml water washing 6", "result": 0, "unit": "%"}, {"measurement": "% released", "setting": "[4]; 10-ml water washing 7", "result": 0, "unit": "%"}, {"measurement": "% released", "setting": "[4]; 10-ml water washing 8", "result": 0, "unit": "%"}, {"measurement": "% released", "setting": "[4]; 10-ml water washing 9", "result": 0, "unit": "%"}, {"measurement": "% released", "setting": "[4]; 10-ml water washing 10", "result": 0, "unit": "%"}, {"measurement": "R (rating factor, number of washings to deplete the AI)", "setting": "[4]; ten 10-ml water washings", "result": 5}, {"measurement": "number of 10-ml water washes to pass through / be depleted from the filter paper", "setting": "[5]", "result": "1-2 washes"}, {"measurement": "controlled-release properties (in words)", "setting": "[5]; filter paper, 10-ml aliquots of water", "result": "no control release capabilities"}, {"measurement": "% released", "setting": "[5]; filter paper, 10-ml water washing 1", "result": 94, "unit": "%"}, {"measurement": "% released", "setting": "[5]; filter paper, 10-ml water washing 1, listed as 2,4-D Salt", "result": 86, "unit": "%"}, {"measurement": "% released", "setting": "[5]; filter paper, 10-ml water washing 2", "result": 6, "unit": "%"}, {"measurement": "% released", "setting": "[5]; filter paper, 10-ml water washing 2, listed as 2,4-D Salt", "result": 14, "unit": "%"}, {"measurement": "% released", "setting": "[5]; filter paper, 10-ml water washing 3", "result": 0, "unit": "%"}, {"measurement": "% released", "setting": "[5]; filter paper, 10-ml water washing 4", "result": 0, "unit": "%"}, {"measurement": "% released", "setting": "[5]; filter paper, 10-ml water washing 5", "result": 0, "unit": "%"}, {"measurement": "% released", "setting": "[5]; filter paper, 10-ml water washing 6", "result": 0, "unit": "%"}, {"measurement": "% released", "setting": "[5]; filter paper, 10-ml water washing 7", "result": 0, "unit": "%"}, {"measurement": "% released", "setting": "[5]; filter paper, 10-ml water washing 8", "result": 0, "unit": "%"}, {"measurement": "% released", "setting": "[5]; filter paper, 10-ml water washing 9", "result": 0, "unit": "%"}, {"measurement": "% released", "setting": "[5]; filter paper, 10-ml water washing 10, * = not all released after 10 washings", "result": 0, "unit": "%"}, {"measurement": "R (rating factor, number of washings to deplete the AI)", "setting": "[5]; filter paper, ten 10-ml water washings", "result": 2}]}
{"smiles": "CN(C)C(=O)Nc1ccccc1", "note": "[Fenuron]", "values": [{"measurement": "Water Solubility", "setting": "[3]", "result": 3850, "unit": "µg/mL"}, {"measurement": "Log P", "setting": "[1]", "result": 0.98}, {"measurement": "KOC", "setting": "[2]; Tables 21-25", "result": 42}]}
{"smiles": "CON(C)C(=O)Nc1ccc(Cl)c(Cl)c1", "note": "[Linuron]", "values": [{"measurement": "Water Solubility", "setting": "[3]", "result": 63.8, "unit": "µg/mL"}, {"measurement": "KOC", "setting": "[2]; [6]", "result": 400, "unit": "mg/g"}, {"measurement": "KOC", "setting": "[2]; Tables 21-25", "result": 620}]}
